Square brackets hold non-standard residues; d marks the D form. Peptide text beside a SMILES is read from it. dHyp = O=C(O)[C@H]1C[C@H](O)CN1
Tests used:
the receptor = assay: in situ binding and animal studies
Procedure: Compounds used in this example were made using standard solid phase Fmoc chemistry. See the prior examples. Identification was performed by mass spectrometry, and the purity, determined by RP-HPLC. […] Initial studies with compound 1 in 1 nM, 10 nM, 50 nM and 100 nM will determine whether studies with the following peptides compound 3 (H-GAG-4-Hyp-PY-NH2) and compound 4 (H-GNY-NH2) are conducted. These studies will also determine whether studies involving specific kinase inhibitors are conducted.

connexin hemi-channels = assay: calcein dye uptake in cardiomyocytes under ischemia mimicking solution (Example 4); assay type: cell-based, rat; settings: 10 nM co-incubation during metabolic stress (stress alone 38% higher), n=6
Procedure: 1. Cell culture: Briefly, the hearts from 20 neonate rats (age 1–2 days) were excised aseptically. The ventricles were isolated and cut into 4–6 pieces, which are digested in several steps in a Hanks buffered saline with trypsin and DNAse. The cells were then centrifuged and resuspended in MEM with 5% FCS. To eliminate non-muscle cells the suspension was preplated in petri dishes for 30 minutes at 37° C. The cells in suspesion were then seeded onto collagen coated coverslips.
2. Dye-uptake: The cover slips with cardiomyocytes were incubated for 30 minutes with control solution (PBS) containing in mM: Na^+ 152, K^+ 4.2, Cl^− 141.5, PO4^3− 9.5, Ca^2+ 0.9, Mg^2+ 0.5, glucose 6, pH 7.4. or an ischmia mimicking (injury) solution (as control only K^+ 8.2, no glucose, 10 mM deoxy-glucose, pH 6.5), both solutions containing 200 μM calcein. Then the cells were washed for 10 minutes with control solution.
The cover slips were mounted in an open chamber on the stage of an inverted microscope. Ten random fields were chosen and from each field three cells were chosen under conventional light microscopy. Then the cells were excited by 480 nm light and the fluorescence emmision measured at 510 nm, where the emission intensity is a measure of dye-uptake.
The effect of the compound 1 on dye-uptake was investigated under two conditions: […]

Compound: CC(=O)N[C@H](Cc1ccc(O)cc1)C(=O)N1CCC[C@@H]1C(=O)N1C[C@@H](O)C[C@@H]1C(=O)NCC(=O)N[C@H](C)C(=O)NCC(N)=O [Compound 1, Ac-D-Tyr-D-Pro-D-4Hyp-Gly-D-Ala-Gly-NH2] (Ac-[dY][dP][dHyp]G[dA]G-NH2)
- binding to the receptor (the receptor): nano-molar range
- calcein dye uptake above control cells (connexin hemi-channels): 5%

From patent US7153822B2, “Compositions and methods for modulating connexin hemichannels” (Wyeth, priority 2002, dated 2006)
